Assay results: patent US7862798B2, “Vitamin-targeted imaging agents” (Endocyte, Inc., priority 2002, dated 2011)
pIC50, pKd: −log10 of the molar value. One block for each molecule: values may come before it.

Columns and labels:
[1] = system: KB tumor; conditions: reported previously; cited from earlier work
[2] = molecular target: T1, folate receptor (FR) on FR-positive KB cells (Homo sapiens, UniProt P15328); assay: Relative affinity assay (blocking of 3H-folic acid binding to KB cells); conditions: for pIC50: 100 nM 3H-folic acid, KB cells, 15 min on ice, triplicate; for RA (relative affinity): inverse molar ratio to displace 50% of 3H-folic acid, folic acid set to 1
T1 construct: FR-positive KB cells were gently trypsinized; endogenous in cells; host or cells: KB cells
Procedure: The relative affinity of various folate derivatives was determined according to the method described by Westerhoff et al. (Mol. Pharm., 48: 459-471 (1995)) with slight modification. Briefly, FR-positive KB cells were gently trypsinized in 0.25% trypsin/PBS at room temperature for 3 minutes and then diluted in FFRPMI/HIFCS. Following a 5 min 800×g spin and one PBS wash, the final cell pellet was suspended in FFRPMI 1640 (no serum). […] Samples were centrifuged at 10,000×g for 5 min, cell pellets were suspended in buffer, were transferred to individual vials containing 5 mL of scintillation cocktail, and were then counted for radioactivity.
Likewise, values lower than unity reflect weaker affinity, and values higher than unity reflect stronger affinity.
Following a 15-minute incubation at 4° C., cells were rinsed free of unbound material and counted for residual cell-associated radioactivity.

[3] = system: FR-positive KB tumors; assay: Tissue distribution of 99mTc-EC53, KB tumors (Table 6); assay type: in vivo
Procedure: (§1) FR-positive KB tumor cells (0.25×10^6 per animal) were inoculated subcutaneously in the intracapsular region. Fourteen days after tumor cell inoculation, the animals (n=4/group) were injected intravenously with ^99mTc-EC11, ^99mTc-EC13, or ^99mTc-EC14 at the doses (about 12 μg/kg) of the conjugates shown in Table 5 below. Stocks of ^99mTc-EC11, ^99mTc-EC13, and ^99mTc-EC14 solutions were prepared on the day of use as described above. About a 20-fold excess of free folate (about 200 μg/kg) was co-administered to control animals (n=4/group). […] Selected tissues were removed, weighed, and counted in an automatic gamma counter to determine ^99mTc distribution. Uptake of the radiopharmaceutical in terms of percentage injected dose of wet weight tissue (% ID/g) was calculated by reference to standards prepared from dilutions of the injected preparation.
Similar results (see Table 6 below) were obtained with ^99mTc-EC53 (the all D-enantiomer of EC20) using similar protocols except that the dose of ^99mTc-EC53 was about 50 μg/kg and about a 100-fold excess of free folate or cold EC53 was used. […] The accumulation was blocked by co-administration of free folate.

[4] = system: FR-positive M109 tumors; assay: Tissue distribution, subcutaneous M109 tumors (Example 11)
Procedure: The ability of ^99mTc-EC20 to target tumors in vivo was assessed using a FR-positive M109 model.
Four to five week-old mice (Balb/c strain) were purchased from Harlan Sprague Dawley, Inc. (Indianapolis, Ind.) and were maintained on a folate-free diet for a total of three weeks prior to the experiment. Syngeneic, FR-positive M109 tumor cells (1×10^6 per animal) were inoculated in the subcutis of the right axilla two weeks prior to the experiment.
Animals received an approximate 40 μmol/kg i.v. dose of test article in 100 μL volume via a lateral tail vein during brief diethyl ether anesthesia. Four hours post-injection, animals were sacrificed by CO2 asphyxiation, and dissected. Selected tissues were removed, weighed, and counted to determine ^99mTc distribution. CPM values were decay-corrected, and results were tabulated as % injected dose per gram of wet weight tissue.

[5] = system: FR-positive KB tumors; assay: Tissue distribution, KB tumor model (Example 16, Table 5); assay type: in vivo, nude mice; conditions: about 20-fold excess of free folate
Procedure: The protocols used in this example are similar to those described in Example 11. The ability of ^99mTc-EC11 (peptide-A1), ^99mTc-EC13 (peptide-A3), and ^99mTc-EC14 (peptide-A2) to target tumors in vivo was assessed using the FR-positive KB tumor model.
as §1

[6] = molecular target: T2, folate receptor (FR) on KB cells (Homo sapiens, UniProt P15328); assay: Concentration-dependent cell uptake (Scatchard analysis); assay type: binding; conditions: 2 hours at 37° C., read-out: KD of binding (Scatchard analysis)
T2 construct: FR-positive KB cells were gently trypsinized; endogenous in cells; host or cells: KB cells
Procedure: KB cells were seeded in 12-well Falcon plates and allowed to form sub-confluent monolayers overnight. Following one rinse with 1 mL of fresh FERPMI/HIFCS, each well received 1 mL of FFRPMI/HIFCS containing increasing concentrations of ^99mTc-EC20. Cells were incubated for 2 hours at 37° C. and then rinsed four times with 1 mL of ice-cold PBS, pH 7.4. The monolayers were dissolved in 0.5 mL of PBS, pH 7.4 containing 1% sodium dodecyl sulfate for 15 min at room temperature and then counted for radioactivity using a Packard gamma counter. Protein content was determined as described above, and final tabulated values were expressed in terms of molecules of EC20 per cell.
The particular KB cells used were determined to bind a maximum of four million molecules of the folate radiopharmaceutical per cell.
This HPLC-purified radiolabeled material (Peak B material) was collected and then added to cultured KB cells.

[7] = 4 hr post i.v., + Folic acid (100 equivalents)
[8] = 4 hr post intravenous injection

T1 sequence (P15328 25-234): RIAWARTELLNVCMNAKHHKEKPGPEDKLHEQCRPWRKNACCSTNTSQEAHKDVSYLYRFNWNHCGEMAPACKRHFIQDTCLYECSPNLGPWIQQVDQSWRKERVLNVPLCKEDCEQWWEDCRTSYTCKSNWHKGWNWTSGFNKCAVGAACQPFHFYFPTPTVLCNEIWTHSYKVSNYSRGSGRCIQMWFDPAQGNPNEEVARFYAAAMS
T2 sequence (P15328 25-234): as above

Molecule: ^99mTc-12-amino-3,3,9,9-tetramethyl-5-oxa-4,8 diaza-2,10-dodecanedinoe dioxime (OXA) folate conjugate
tracer uptake in a KB tumor [1]: ~7 % ID/g

Molecule: Nc1nc2ncc(CNc3ccc(C(=O)N[C@H](CCC(=O)NC[C@H]4[NH2+][99Tc-]56(=[O])[S]C[C@H](C(=O)O)[N]5C(=O)[C@@H](CC(=O)O)[N]6C4=O)C(=O)O)cc3)nc2c(=O)[nH]1 [^99mTc-EC53]
Tumor/Blood, Average ([3]; 99mTc-EC53 alone): 31.4
Tumor/Kidney, Average ([3]; 99mTc-EC53 alone): 0.2
Tumor/Liver, Average ([3]; 99mTc-EC53 alone): 3.4
Tumor/Muscle, Average ([3]; 99mTc-EC53 alone): 17.1
Tumor, Average ([3]; 99mTc-EC53 alone, 50.0 ug/kg): 11.77 % ID/g
blood, Average ([3]; 99mTc-EC53 alone, 50.0 ug/kg): 0.38 % ID/g
heart, Average ([3]; 99mTc-EC53 alone, 50.0 ug/kg): 1.09 % ID/g
intestine, Average ([3]; 99mTc-EC53 alone, 50.0 ug/kg): 3.53 % ID/g
kidney, Average ([3]; 99mTc-EC53 alone, 50.0 ug/kg): 77.99 % ID/g
liver, Average ([3]; 99mTc-EC53 alone, 50.0 ug/kg): 3.86 % ID/g
lung, Average ([3]; 99mTc-EC53 alone, 50.0 ug/kg): 0.89 % ID/g
muscle, Average ([3]; 99mTc-EC53 alone, 50.0 ug/kg): 0.76 % ID/g
spleen, Average ([3]; 99mTc-EC53 alone, 50.0 ug/kg): 0.67 % ID/g
stomach, Average ([3]; 99mTc-EC53 alone, 50.0 ug/kg): 1.04 % ID/g
accumulation in FR-positive KB tumors and kidneys on co-administration of free folate ([3]; about a 100-fold excess of free folate): blocked
Tumor/Blood, Average ([3]; plus EC53 (cold)): 4.5
Tumor/Kidney, Average ([3]; plus EC53 (cold)): 0.14
Tumor/Liver, Average ([3]; plus EC53 (cold)): 0.3
Tumor/Muscle, Average ([3]; plus EC53 (cold)): 8.5
Tumor/Blood, Average ([3]; plus Folic Acid): 2.2
Tumor/Kidney, Average ([3]; plus Folic Acid): 0.07
Tumor/Liver, Average ([3]; plus Folic Acid): 0.1
Tumor/Muscle, Average ([3]; plus Folic Acid): 5.2

Molecule: Nc1nc2ncc(CNc3ccc(C(=O)N[C@@H](CCC(=O)N[C@H](CCC(=O)NC[C@@H]4[NH2+][99Tc-]56(=[O])[S]C[C@@H](C(=O)O)[N]5C(=O)[C@H](CC(=O)O)[N]6C4=O)C(=O)O)C(=O)O)cc3)nc2c(=O)[nH]1 [^99mTc-EC14]
Blood [4, 7]: 0.19 ± 0.07 % Injected Dose per Gram Tissue
Heart [4, 7]: 0.08 ± 0.01 % Injected Dose per Gram Tissue
Intestine [4, 7]: 0.32 ± 0.11 % Injected Dose per Gram Tissue
Kidney [4, 7]: 5.94 ± 0.52 % Injected Dose per Gram Tissue
Liver [4, 7]: 1.37 ± 0.98 % Injected Dose per Gram Tissue
Lung [4, 7]: 0.15 ± 0.04 % Injected Dose per Gram Tissue
Muscle [4, 7]: 0.09 ± 0.11 % Injected Dose per Gram Tissue
Spleen [4, 7]: 2.99 ± 1.43 % Injected Dose per Gram Tissue
Stomach [4, 7]: 0.10 ± 0.03 % Injected Dose per Gram Tissue
Tumor [4, 7]: 0.43 ± 0.52 % Injected Dose per Gram Tissue
Tumor/Blood [4, 7]: 2.00 ± 2.00
Blood [4, 8]: 0.31 ± 0.14 % Injected Dose per Gram Tissue
Heart [4, 8]: 2.39 ± 0.64 % Injected Dose per Gram Tissue
Intestine [4, 8]: 1.70 ± 0.55 % Injected Dose per Gram Tissue
Kidney [4, 8]: 98.0 ± 40.7 % Injected Dose per Gram Tissue
Liver [4, 8]: 3.44 ± 2.19 % Injected Dose per Gram Tissue
Lung [4, 8]: 2.08 ± 0.40 % Injected Dose per Gram Tissue
Muscle [4, 8]: 0.99 ± 0.28 % Injected Dose per Gram Tissue
Spleen [4, 8]: 2.68 ± 2.49 % Injected Dose per Gram Tissue
Stomach [4, 8]: 1.47 ± 0.58 % Injected Dose per Gram Tissue
Tumor/Blood [4, 8]: 34.1 ± 7.41
accumulation in FR-positive KB tumors and kidneys on co-administration of free folate [5]: blocked

Molecule: Nc1nc2ncc(CNc3ccc(C(=O)NC(CCC(=O)NCC(N)C(=O)NC(CC(=O)O)C(=O)NC(CS)C(=O)O)C(=O)O)cc3)nc2c(=O)[nH]1 (stereo not shown) [EC20]
pIC50 [2]: 6.89
RA (relative affinity) [2]: 0.92
pKd [6]: ~8.52

Other lines, results leading:

pIC50 [2]: 7.07
RA (relative affinity) [2]: 1.37
RA (relative affinity) ([2]; listed as Re-EC20 isomer B): 1.37
Molecule: Nc1nc2ncc(CNc3ccc(C(=O)N[C@H](CCC(=O)NC[C@@H]4[NH2+][Re-]56(=[O])[S]C[C@@H](C(=O)O)[N]5C(=O)[C@H](CC(=O)O)[N]6C4=O)C(=O)O)cc3)nc2c(=O)[nH]1 (single isomer, unassigned; isomer 2) [EC20:Re isomer 2]

pIC50 [2]: 7.08
RA (relative affinity) [2]: 1.42
RA (relative affinity) ([2]; listed as Re-EC20 isomer A): 1.42
Molecule: Nc1nc2ncc(CNc3ccc(C(=O)N[C@H](CCC(=O)NC[C@@H]4[NH2+][Re-]56(=[O])[S]C[C@@H](C(=O)O)[N]5C(=O)[C@H](CC(=O)O)[N]6C4=O)C(=O)O)cc3)nc2c(=O)[nH]1 (single isomer, unassigned; isomer 1) [EC20:Re isomer 1]
